What was measured:
human ERα = biological target: T1, human ERα (Homo sapiens, UniProt P03372); experiment: Competitive steroid binding assay, ERα; conditions: from Ki values for human ERα and ERβ
T1 sequence (P03372 1-595): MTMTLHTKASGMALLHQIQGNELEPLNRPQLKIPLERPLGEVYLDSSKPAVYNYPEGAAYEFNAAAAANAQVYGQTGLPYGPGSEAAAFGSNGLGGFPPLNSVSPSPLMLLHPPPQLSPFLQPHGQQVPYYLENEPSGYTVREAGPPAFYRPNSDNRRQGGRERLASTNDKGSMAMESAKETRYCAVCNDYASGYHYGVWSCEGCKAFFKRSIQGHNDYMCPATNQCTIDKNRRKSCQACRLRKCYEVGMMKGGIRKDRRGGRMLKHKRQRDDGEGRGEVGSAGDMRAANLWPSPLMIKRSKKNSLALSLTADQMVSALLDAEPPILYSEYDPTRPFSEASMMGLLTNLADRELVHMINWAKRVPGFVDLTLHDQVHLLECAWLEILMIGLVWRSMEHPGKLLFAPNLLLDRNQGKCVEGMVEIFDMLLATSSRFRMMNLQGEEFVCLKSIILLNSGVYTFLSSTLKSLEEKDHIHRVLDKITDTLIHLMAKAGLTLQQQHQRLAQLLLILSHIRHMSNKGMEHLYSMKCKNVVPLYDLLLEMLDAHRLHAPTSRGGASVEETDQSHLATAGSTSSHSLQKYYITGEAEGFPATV

nonpregnant ewes = conditions: intravenously administered; cited from earlier work
OVX-rats = experiment: pQCT densitometry of proximal tibiae, ovariectomized aged rat osteoporosis model; assay type: in vivo; design: anti-resorptive activity compared with positive control EE: dose or concentration left out as unconfirmed; conditions: po, 4 weeks; for Mean Total Bone Mineral Area / Mean Total Bone Mineral Content / Mean Total Bone Mineral Density / Mean Trabecular Bone Mineral Area / Mean Trabecular Bone Mineral Content / Mean Trabecular Bone Mineral Density: proximal tibiae
Method: The ovariectomized aged rat was used as a model for the human disease osteoporosis. This is an established animal model, recommended by the United States Food and Drug Administration (FDA), to evaluate and assess potential agents for osteoporosis prevention and therapy. The anti-resorptive efficacy of estetrol (E4) was tested by ex vivo measuring total and trabecular bone mineral density and bone strength after 4 weeks of treatment at necropsy. 17α-ethinyl-estradiol (EE) and vehicle (1% ethanol/arachidis oil) served as controls in this bioassay.
Three months old female Sprague-Dawley rats were either sham-operated (Sham) or ovariectomized (OVX) one day prior to commencement of the dosing study. Animals were anesthetized using a ketamine/xylazine anesthetic mixture and underwent a bilateral ovariectomy or were sham-treated. A section of hair on the dorsal surface was shaved and an incision made overlying the lumbar region of the spine. The skin was separated from the underlying fascia so that a second incision could be made through the abdominal musculature approximately caudal to the kidneys. The ovaries were then exteriorized and removed and the musculature was closed with a single suture. The skin incision was closed using surgical staples.
Ten animals per treatment group were orally dosed once per day for four consecutive weeks. […] Vehicle control was daily administered to one group of OVX-animals and sham-operated rats. After treatment, anesthetized rats were subjected to cardiac puncture and asphyxiated by CO2 inhalation. Tibiae and femura were removed, cleaned of soft-tissue and fixed and stored in 70% ethanol/saline at 4° C. (tibia) or saline at 4° C. (femura) until fuirther analysis.
Ex vivo peripheral Quantitative Computed Tomography (pQCT) was performed on the excised left tibiae using a Stratec XCT-RM and associated software (Stratec Medizintechnik GmbH, Pforzheim; Germany, software version 5.40). The scans were performed at 12% of the total length from the proximal end of the tibiae. The positions were verified using scout views and one 0.5-mm slice perpendicular to the long axis of the tibial shaft was acquired from each site. The scans were analyzed using a threshold for delineation of the external boundary. The total and trabecular bone mineral content, area and density at each site were determined. Furthermore, pQCT data for mean total bone mineral density are depicted in FIG. 1.

ovariectomized rats = experiment: Modified 7-day vaginal cornification bioassay with uterine wet weight; assay type: in vivo, rat; conditions: OVX rats, po, 7 days
Excerpt: Uterine weight increase in the rat was chosen as another relevant tissue-specific endpoint to determine the hormonal potency of estetrol (E4), particularly in relationship to its hormonal potency to induce vaginal cornification and to correct for vaginal atrophy. Orally (po) administered E4 was therefore tested in a modified 7-day vaginal cornification bioassay (see also example 1), including uterine wet weight measurements at necropsy, to account for vaginal and uterotrophic effects.
The uterotrophic response has been used for many years to assess estrogenic activity. The typical bioassay uses female rats with low levels of endogenous estrogens (e.g., ovariectomized adults or immature animals). In most assay designs the animals are dosed once or twice daily for 3 or 4 days, and twenty-four hours after the final dose the animals are killed, and the uteri excised and weighed. In the current bioassay, vaginal epithelial cornification, and uterine weight gain was evaluated in ovariectomized adult rats over a 7-day period. In this way, two distinct estrogen sensitive parameters could be evaluated concurrently.
Adult intact female CD rats were ovariectomized to induce estrogen deficiency. […] Castrate vaginal smears are indicative that complete ovariectomy was achieved. […] Animals were orally dosed, once daily for 7 consecutive days with vehicle control (10% ethanol/sesame oil) or either 0.1, 0.3, 1.0, or 3.0 mg/kg/day E4. Daily vaginal lavages continued to be obtained for 7 days after dosing was initiated in order to detect vaginal cornification, as an indication of an estrogenic response. A drop of vaginal washings was placed on a glass slide and examined by light microscopy to detect the presence or absence of cornified epithelial cells. The cells present in the vaginal washings were recorded. Vaginal lavages were obtained prior to dosing on days 0-6 and prior to necropsy on day 7.
On Study Day 7, following vaginal lavage 24 hours after the final dose, all rats were euthanized by CO2 asphyxiation. An abdominal incision was made and the uterus excised, blotted and weighed. The occurrence of vaginal cornification, indicative of an estrogenic response, is an “all or none” response. Therefore, data were expressed as the number of rats showing a vaginal estrogenic response (for one or more days) over the number of rats treated (ratio). A Z-test of proportions was used to compare the four test groups to the vehicle control group. Group means±SEM were also calculated for the uterine weights. […] Therefore, a Kruskal-Wallis non-parametric ANOVA on ranks was performed and significant differences across the four treatment groups and the vehicle control were determined using Dunn's method.

## C[C@]12CC[C@@H]3c4ccc(O)cc4CC[C@H]3[C@@H]1[C@@H](O)[C@@H](O)[C@@H]2O [E4, 1,3,5 (10)-estratrien-3,15α,16α,17β-tetrol]
Human ERα
  Relative ERα/ERβ preference: 400%
Nonpregnant ewes
  potency in uterine vasodilation relative to estriol and 17β-estradiol: 15 to 30 times less potent
OVX-rats; 0.1 mg/kg/day
  Mean Total Bone Mineral Area: 14.41 mm^2
  Mean Total Bone Mineral Content: 8.46 mg/mm
  Mean Total Bone Mineral Density: 588.62 mg/mL
  Mean Trabecular Bone Mineral Area: 6.48 mm^2
  Mean Trabecular Bone Mineral Content: 0.96 mg/mm
  Mean Trabecular Bone Mineral Density: 145.46 mg/mL
OVX-rats; 0.5 mg/kg/day
  Mean Total Bone Mineral Area: 14.80 mm^2
  Mean Total Bone Mineral Content: 9.74 mg/mm
  Mean Total Bone Mineral Density: 660.57 mg/mL
  Mean Trabecular Bone Mineral Area: 6.65 mm^2
  Mean Trabecular Bone Mineral Content: 1.60 mg/mm
  Mean Trabecular Bone Mineral Density: 243.31 mg/mL
OVX-rats; highest dose
  anti-resorptive activity compared with positive control EE: equivalent to the effect seen with the positive control EE
Ovariectomized rats; 0.1 mg/kg/day
  Uterine weight Mean: 149.2 mg
  Uterine weight Significantly different from vehicle (P < 0.05): no
  Vaginal Cornification Non-responders: 0
  Vaginal Cornification Significantly different from vehicle (P < 0.05): yes
  Vaginal Cornification responders: 8
Ovariectomized rats; 0.3 mg/kg/day
  Uterine weight Mean: 181.2 mg
  Uterine weight Significantly different from vehicle (P < 0.05): no
  Vaginal Cornification Non-responders: 0
  Vaginal Cornification Significantly different from vehicle (P < 0.05): yes
  Vaginal Cornification responders: 8
Ovariectomized rats; 1.0 mg/kg/day
  Uterine weight Mean: 253.7 mg
  Uterine weight Significantly different from vehicle (P < 0.05): yes
  Vaginal Cornification Non-responders: 0
  Vaginal Cornification Significantly different from vehicle (P < 0.05): yes
  Vaginal Cornification responders: 8
Ovariectomized rats; 3.0 mg/kg/day
  Uterine weight Mean: 308.4 mg
  Uterine weight Significantly different from vehicle (P < 0.05): yes
  Vaginal Cornification Non-responders: 0
  Vaginal Cornification Significantly different from vehicle (P < 0.05): yes
  Vaginal Cornification responders: 8

From patent US8048869B2, “Pharmaceutical composition for use in hormone replacement therapy” (Pantarhei Bioscience B.V., priority 2001, dated 2011)
